Laboratory results: patent publication US11744830B2, “Ameliorative agent for cytokine release syndrome and so on” (TORII PHARMACEUTICAL CO., LTD., priority 2018, dated 2023)
pIC50: −log10 of the molar value. Where a name gives a salt, the structure may show the parent alone.

Experiments:
[1] = tested on: IL-6 production from CD14^+ cells; assay: LPS stimulation-induced IL-6 production in CD14^+ cells; format: cell-based, human; details: for pIC50: Homo sapiens, 72 h, CD14^+ cells, LPS 3 ng/mL, 3 days
Description: (§1) Cryopreserved PBMCs were quickly thawed in a 37° C. thermostat and added to a tube containing medium. After centrifugation (at room temperature at 300 g for 10 minutes) to remove the supernatant, the cells were suspended again in the medium, followed by counting the number of viable cells. The cell suspension was centrifuged (at room temperature at 300 g for 10 minutes) to remove the supernatant, followed by addition of MACS Buffer to suspend the cells, to which Human CD14 MicroBeads were further added. After being allowed to stand on ice for 15 minutes, the cell suspension was diluted with MACS Buffer and centrifuged (at room temperature at 300 g for 10 minutes) to remove the supernatant.
MACS Buffer was added to the tube, and the cells were suspended and then applied to a separatory column to separate CD14^+ cells. The CD14^+ cell fraction was diluted with the medium and then centrifuged (at room temperature at 300 g for 10 minutes). The supernatant was removed and the cells were suspended in the medium (1 mL), followed by counting the number of viable cells. The cell suspension was adjusted with the medium to 2.4×10^5 or 3×10^5 cells/mL and seeded in a 96-well plate (2.4×10^4 cells/well), which was then allowed to stand in a CO2 incubator for 1 to 2 hours.
(§2) The collected culture supernatants were quantified for IL-6 using Human IL-6 DuoSet ELISA.

[2] = tested on: TNF-α production in PBMCs; assay: LPS stimulation-induced TNF-α production in PBMCs; format: cell-based; details: Homo sapiens, PBMC
Description: (§3) Cryopreserved PBMCs were quickly thawed in a 37° C. thermostat and added to a tube containing medium. After centrifugation (at room temperature at 300 g for 10 minutes) to remove the supernatant, the cells were suspended again in the medium (10 mL), followed by counting the number of viable cells. After centrifugation (at room temperature at 300 g for 10 minutes) to remove the supernatant, the medium was added to suspend the cells at 1×10^6 cells/mL. This cell suspension was seeded in a 96-well plate in a volume of 100 μL/well (1×10^5 cells/well). […] The cells were cultured in a CO2 incubator for 3 days to collect the culture supernatants.
The culture supernatants collected in 1.2.2 were quantified for TNF-α using Human TNF-α DuoSet ELISA.

MCP-1 production = assay: CRS toxicity evaluation system using CAR-T cells: MCP-1; format: cell-based, human; details: Homo sapiens, Monocyte; CAR-T cells, target cells and monocytes, 72 hours
Description: The supernatants were collected at 72 hours after the initiation of culture, and various cytokines in each supernatant were measured by FACS multiplex assay.

[3] = tested on: TNF-α production from CD8^+ T cells; assay: T-cell stimulation bead-induced TNF-α production in CD8^+ T cells; format: cell-based, human; details: CD3/CD28 stimulation, 3 days
Description: Cryopreserved PBMCs were quickly thawed in a 37° C. thermostat and added to a tube containing medium. After centrifugation (at room temperature at 300 g for 10 minutes) to remove the supernatant, the cells were suspended in the medium, a portion of which was then mixed with a trypan blue solution to count the number of viable cells. The cell suspension was centrifuged (at room temperature at 300 g for 10 minutes) to remove the supernatant, followed by addition of MACS Buffer in a volume of 80 μL per 1×10^7 cells to suspend the cells, to which Human CD8 MicroBeads (20 μL) were further added. After being allowed to stand on ice for 15 minutes, the cell suspension was diluted with MACS Buffer (2 mL) and centrifuged (at room temperature at 300 g for 10 minutes) to remove the supernatant.
MACS Buffer (500 μL) was added to the tube, and the cells were suspended and then applied to a separatory column to separate CD8^+ cells. The CD8^+ cell fraction was diluted to 15 mL with the medium and then centrifuged (at room temperature at 300 g for 10 minutes). The supernatant was removed and the cells were suspended in the medium (1 mL), followed by counting the number of viable cells. The cell suspension adjusted with the medium to 1×10^6 cells/mL was seeded in a 96-well plate in a volume of 100 μL/well (1×10^5 cells/well) and allowed to stand in a CO2 incubator for 1 to 2 hours.
The culture supernatants collected in 1.2.1 were quantified for TNF-α using Human TNF-α DuoSet ELISA.

[4] = tested on: IL-18 production from LPS-pretreated CD14^+ cells; assay: ATP stimulation-induced IL-18 production from LPS-pretreated CD14^+ cells; format: cell-based, human; details: for pIC50: Homo sapiens, CD14^+ cells (LPS-pretreated), ATP 5 mM
Description: as §1
MACS Buffer was added to the tube, and the cells were suspended and then applied to a separatory column to separate CD14^+ cells. The CD14^+ cell fraction was diluted with the medium and then centrifuged (at room temperature at 300 g for 10 minutes). The supernatant was removed and the cells were suspended in the medium (1 mL), followed by counting the number of viable cells. The cell suspension adjusted with the medium to 2×10^6 cells/mL was seeded in a 96-well plate (1×10^5 cells/well) and allowed to stand in a CO2 incubator for 1 to 2 hours. […] The cells were then stimulated with LPS (final concentration: 500 ng/mL) for 6 hours at 37° C. and an ATP solution (final concentration: 5 mM) was added thereto, and the 96-well plate was further allowed to stand in a CO2 incubator for 2 hours to collect the culture supernatants.
The collected culture supernatants were quantified for IL-18 using Human IL-18 DuoSet ELISA.

[5] = tested on: IL-6 production from PBMCs; assay: LPS stimulation-induced IL-6 production in PBMCs; format: cell-based; details: Homo sapiens, PBMC, 72 h, LPS 3 ng/mL, 3 days
Description: as §3, §2

Row | pIC50 [3] | SMILES | Ratio (IL-6/IFN-γ) of IC50 values ([1]; CD14^+ cells (IL-6) / CD8^+ T cells (IFN-γ)) | pIC50 [1] | pIC50 [2] | pIC50 (MCP-1 production) | pIC50 ([3]; dihydrochloride) | pIC50 ([3]; Homo sapiens, T-cell, 72 h) | pIC50 [4] | pIC50 [5] | suppressive effect on IL-18 production ([4]; LPS-pretreated CD14^+ cells, ATP)
1 |  | CCOC(=O)[C@H](Cc1ccccc1)NC(=O)c1cc(Cl)c(OCCN2CCN(C)CC2)c(Cl)c1O [JTE-607, (−)-ethyl N-{3,5-dichloro-2-hydroxy-4-[2-(4-methylpiperazin-1-yl)ethoxy]benzoyl}-L-phenylalaninate dihydrochloride] | <0.18 | 7.28 | 7.51 | 7.42 | 6.64 | 6.64 | 8.62 | 7.75 | 
2 | 7.46 | C[C@]12C=CC(=O)C=C1CC[C@@H]1[C@@H]2[C@@H](O)C[C@@]2(C)[C@H]1CC[C@]2(O)C(=O)CO [PSL, Prednisolone] |  | 6.82 | 7.14 | 4.14 |  | 7.46 | < 4.52 | 6.75 | no suppressive effect
